Among the data in patent US9215875B2 (priority 2008, dated 2015) are chromatographic logP and logP values, retold here.

Read-outs that look alike come from different tables or passages of the source.

A short description of the data set: log P determination by HPLC on reversed-phase columns (C 18), acidic range pH 2.7. Format: physicochemical. Conditions: for chromatographic logP: reversed-phase HPLC column (C 18); for logP: HPLC.
Setting [1] is: pH 2.7, HPLC, pH 2.7, only value, or main isomer, read-out: logP.
[2] abbreviates: pH 2.7, pH 2.7, preparation example, only value or main isomer, read-out: log P (pH2.7).
Setting [3] is: pH 2.7, HPLC, pH 2.7, second-listed (minor) isomer of the isomer mixture, read-out: logP.
Setting [4] is: pH 2.7, pH 2.7, preparation example, minor isomer, read-out: log P (pH2.7).
Where [5] appears, read: pH 2.7, only value, or main isomer.
The mark [6] stands for this setting: pH 2.7, second-listed (minor) isomer of the isomer mixture.

Turning to `Cc1cc(C(F)(F)F)nn1CC(=O)N1CCC(c2nc(C=NN(C)c3ccc(C(F)(F)F)cn3)cs2)CC1` [I-14, 2-(1-{[5-Methyl-3-(trifluoromethyl)-1H-pyrazol-1-yl]acetyl}piperidin-4-yl)-1,3-thiazole-4-carbaldehyde methyl[5-(trifluoromethyl)pyridin-2-yl]hydrazone], the chromatographic logP runs as follows: under setting [1], 4.23; under setting [2], 4.23.
In the case of `Cc1cc(C(F)(F)F)nn1CC(=O)N1CCC(c2nc(C=NOc3ccccc3)cs2)CC1` [I-1, 2-(1-{[5-Methyl-3-(trifluoromethyl)-1H-pyrazol-1-yl]acetyl}piperidin-4-yl)-1,3-thiazole-4-carbaldehyde O-phenyl oxime], the chromatographic logP by setting is: under setting [1], 3.74; under setting [3], 3.94; under setting [4], 3.94; under setting [2], 3.74.
Regarding `O=C(Cn1nc(C(F)(F)F)cc1C(F)(F)F)N1CCC(c2nc(C=NOCc3ccc(Cl)cc3)cs2)CC1` [I-24], under setting [5], the logP is on record as 4.56.
Take `CC(=NOC(C)c1ccccc1)c1csc(C2CCN(C(=O)Cn3nc(C(F)(F)F)cc3C)CC2)n1` (centres unmarked) [I-5, 2-[5-Methyl-3-(trifluoromethyl)-1H-pyrazol-1-yl]-1-(4-{4-[N-(1-phenylethoxy)ethanimidoyl]-1,3-thiazol-2-yl}piperidin-1-yl)ethanone]: the chromatographic logP under setting [1] was 4.38, the chromatographic logP under setting [3] was determined as 4.54, the chromatographic logP under setting [4] is 4.54 and the chromatographic logP under setting [2] came to 4.38.
Under setting [5], `CC(C)(C)c1cc(C(F)(F)F)n(CC(=O)N2CCC(c3nc(C=NOCc4ccc(Cl)cc4)cs3)CC2)n1` [I-28] came in with a log partition coefficient (logP) of 4.99.
Still for that read-out and setting: the result for `Cc1cc(C(F)(F)F)nn1CC(=O)N1CCC(c2nc(C=NN(C)Cc3ccccn3)cs2)CC1` [I-11] reads 1.82.
With `Cc1cc(C(F)(F)F)nn1CC(=O)N1CCC(c2nc(C=NN3CCCCC3)cs2)CC1` [I-16], the logP under setting [5] amounted to 3.00.
The same measure, in the same setting: the result for `CCCCCON=C(C)c1csc(C2CCN(C(=O)Cn3nc(C(F)(F)F)cc3C)CC2)n1` [I-20] reads 4.71.
`CC(=NOC1CCCCC1)c1csc(C2CCN(C(=O)Cc3cc(Cl)ccc3Cl)CC2)n1` (mixture of isomers) [I-46]: the logP was 5.87 under setting [5] and 6.17 under setting [6].
Turning to `Cc1cc(C(F)(F)F)nn1CC(=O)N1CCC(c2nc(C=NOC(C)c3ccc(Cl)cc3)cs2)CC1` (mixture of isomers) [I-8], the logP is, setting by setting: under setting [5], 4.34; under setting [6], 4.50.
On to `Cc1cc(C(F)(F)F)nn1CC(=O)N1CCC(c2nc(C=NN(C)c3ccccc3)cs2)CC1` [I-15], for which, under setting [5], the logP is reported as 3.83.
`CCc1cc(C(F)(F)F)nn1CC(=O)N1CCC(c2nc(C=NOCc3ccc(Cl)cc3)cs2)CC1` [I-26] registered a logP under setting [5] of 4.30.
As to `Cc1cc(C(F)(F)F)nn1CC(=O)N1CCC(c2nc(C=NOC3CCCCC3)cs2)CC1` (mixture of isomers) [I-33], the logP under setting [5] is 4.26 and the logP under setting [6] turned out to be 4.48.
Take `CC(=O)c1csc(C2CCN(C(=O)Cn3nc(C(F)(F)F)cc3C)CC2)n1` [IV-1, 1-[4-(4-Acetyl-1,3-thiazol-2-yl)piperidin-1-yl]-2-[5-methyl-3-(trifluoromethyl)-1H-pyrazol-1-yl]ethanone]: the chromatographic logP under setting [2] is 2.25.
For the compound `O=C(Cn1nc(C(F)F)cc1C(F)F)N1CCC(c2nc(C=NOC3CCCCC3)cs2)CC1` (mixture of isomers) [I-34], the logP under setting [5] stood at 4.12 and the logP under setting [6] was 4.33.
Under setting [5], `CC(C)(C)c1cc(C(F)(F)C(F)(F)F)nn1CC(=O)N1CCC(c2nc(C=NOCc3ccc(Cl)cc3)cs2)CC1` [I-31] displayed a logP of 5.31.
On the same count and under the same terms, the result for `Cc1cc(C(F)(F)F)nn1CC(=O)N1CCC(c2nc(C=NN(c3ccccc3)c3ccccc3)cs2)CC1` [I-13] reads 4.77; that for `CCc1cc(CC)n(CC(=O)N2CCC(c3nc(C=NOCc4ccc(Cl)cc4)cs3)CC2)n1` [I-25], 3.70.
`Cc1cc(C(F)(F)F)nn1CC(=O)N1CCC(c2nc(C=NOCc3ccccc3)cs2)CC1` (mixture of isomers) [I-2]: the logP reads like this: under setting [5], 3.63; under setting [6], 3.80.
Take `CC(=NN1CCCCC1)c1csc(C2CCN(C(=O)Cn3nc(C(F)(F)F)cc3C)CC2)n1` [I-17, 2-[5-Methyl-3-(trifluoromethyl)-1H-pyrazol-1-yl]-1-(4-{4-[N-(piperidin-1-yl)ethanimidoyl]-1,3-thiazol-2-yl}piperidin-1-yl)ethanone]: the chromatographic logP was 3.69 under setting [1] and 3.69 under setting [2].
As to `Cc1cc(C(F)(F)F)nn1CC(=O)N1CCC(c2nc(C=NOCc3c(F)cccc3F)cs2)CC1` (mixture of isomers) [I-36], the log partition coefficient (logP) amounted to 3.70 under setting [5] and 3.86 under setting [6].
On the same counts, the results for `O=C(Cn1nc(C(F)F)cc1C(F)F)N1CCC(c2nc(C=NOCc3c(F)cccc3F)cs2)CC1` (mixture of isomers) [I-37] are 3.58 and 3.74.
In the same order, the values of `Cc1cc(C(F)(F)F)nn1CC(=O)N1CCC(c2nc(C=NOCc3ccc(Cl)cc3)cs2)CC1` (mixture of isomers) [I-7] are 4.04 and 4.23.
On to `CC(C)(C)c1cc(C(F)(F)C(F)(F)F)n(CC(=O)N2CCC(c3nc(C=NOCc4ccc(Cl)cc4)cs3)CC2)n1` [I-30], for which the logP under setting [5] was found to be 5.31.
With `CC(=NOc1ccccc1)c1csc(C2CCN(C(=O)Cn3nc(C(F)(F)F)cc3C)CC2)n1` (mixture of isomers) [I-4], the logP under setting [5] was 4.23 and the logP under setting [6] came to 4.46.
On the same counts, the results for `O=C(Cc1cc(Cl)ccc1Cl)N1CCC(c2nc(C=NOC3CCCCC3)cs2)CC1` (mixture of isomers) [I-35] are 5.10 and 5.45.
On to `Cc1cc(C(F)(F)F)nn1CC(=O)N1CCC(c2nc(C=NOC(C)c3ccccc3)cs2)CC1` (mixture of isomers) [I-3], for which the logP under setting [5] turned out to be 3.92 and the logP under setting [6] was determined as 4.07.
`CC(=NOCCCCc1ccccc1)c1csc(C2CCN(C(=O)Cn3nc(C(F)(F)F)cc3C)CC2)n1` [I-22] gave a lipophilicity (logP) under setting [5] of 4.97.
Still for that read-out and setting: the result for `Cc1cc(C(F)(F)F)nn1CC(=O)N1CCC(c2nc(C=NN(Cc3ccccc3)c3ccccc3)cs2)CC1` [I-12] reads 4.70.
`O=C(Cc1cc(Cl)ccc1Cl)N1CCC(c2nc(C=NOc3ccccc3Br)cs2)CC1` [I-40] gave a logP under setting [5] of 4.90.
Under setting [5], `Cc1cc(C(F)(F)F)nn1CC(=O)N1CCC(c2nc(C=NOc3ccccc3Br)cs2)CC1` [I-39] showed a logP of 4.14.
With `CC(=NOC1CCCCC1)c1csc(C2CCN(C(=O)Cn3nc(C(F)F)cc3C(F)F)CC2)n1` (mixture of isomers) [I-45], the logP runs as follows: under setting [5], 4.69; under setting [6], 4.88.
In the same order, the values of `CC(=NOCc1ccccc1)c1csc(C2CCN(C(=O)Cn3nc(C(F)(F)F)cc3C)CC2)n1` (mixture of isomers) [I-10] are 4.07 and 4.28.
On the same counts, the results for `CC(=NOCc1c(F)cccc1F)c1csc(C2CCN(C(=O)Cn3nc(C(F)F)cc3C(F)F)CC2)n1` (mixture of isomers) [I-42] are 4.00 and 4.19.
`CC(C)(C)c1cc(C(F)(F)F)nn1CC(=O)N1CCC(c2nc(C=NOCc3ccc(Cl)cc3)cs2)CC1` [I-29] had a logP under setting [5] of 4.75.
Take `Cc1cc(C(F)(F)F)nn1CC(=O)N1CCC(c2nc(C=NOCc3ccccc3F)cs2)CC1` (mixture of isomers) [I-9]: the logP is, setting by setting: under setting [5], 3.68; under setting [6], 3.84.
On the same counts, the results for `CC(=NOCc1c(F)cccc1F)c1csc(C2CCN(C(=O)Cc3cc(Cl)ccc3Cl)CC2)n1` (mixture of isomers) [I-43] are 4.91 and 5.16.
Take `O=C(Cn1nc(C(F)F)cc1C(F)F)N1CCC(c2nc(C=NOCc3ccc(Cl)cc3)cs2)CC1` [I-27]: the logP under setting [5] was found to be 3.90.
The same measure, in the same setting: the result for `CC(C)c1cc(C(F)(F)F)n(CC(=O)N2CCC(c3nc(C=NOCc4ccc(Cl)cc4)cs3)CC2)n1` [I-32] reads 4.56.
`CC(=NOC1CCCCC1)c1csc(C2CCN(C(=O)Cn3nc(C(F)(F)F)cc3C)CC2)n1` (mixture of isomers) [I-44]: the logP is, setting by setting: under setting [5], 4.02; under setting [6], 4.12.
As for `Cc1ccccc1CON=Cc1csc(C2CCN(C(=O)Cn3nc(C(F)(F)F)cc3C)CC2)n1` (mixture of isomers) [I-6], the log partition coefficient (logP) is 3.96 under setting [5] and 4.12 under setting [6].
In the same order, the values of `CC(=NOCc1c(F)cccc1F)c1csc(C2CCN(C(=O)Cn3nc(C(F)(F)F)cc3C)CC2)n1` (mixture of isomers) [I-41] are 4.11 and 4.32.
`Cc1cc(C(F)(F)F)nn1CC(=O)N1CCC(c2nc(C=NOCc3ccccc3Cl)cs2)CC1` [I-18] gave a logP under setting [5] of 4.04.
The same measure, in the same setting: in the case of `CC(=NOCCCc1ccccc1)c1csc(C2CCN(C(=O)Cn3nc(C(F)(F)F)cc3C)CC2)n1` [I-21] it was 4.66.
Consider `O=C(Cc1cc(Cl)ccc1Cl)N1CCC(c2nc(C=NOCc3c(F)cccc3F)cs2)CC1` (mixture of isomers) [I-38], for which the logP came out at 4.36 under setting [5] and 4.60 under setting [6].
`CCCCCCON=C(C)c1csc(C2CCN(C(=O)Cn3nc(C(F)(F)F)cc3C)CC2)n1` [I-19] showed a logP under setting [5] of 5.13.
